Results on 13 compounds are retold here after PubChem BioAssay (NCI).

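All cell lines were grown in 96-well plates and treated with compound for 48 hours. At the GI50, growth is halved. The concentration for full growth arrest is given as TGI.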

Among the test systems are SW-620 colon; SK-MEL-2 melanoma; SF-268 CNS; EKVX NSCLC; RPMI-8226 leukemia; NCI-H226 lung; M14 melanoma; SR leukemia; NCI-H522 lung; OVCAR-4 ovarian.
Common to all, as to experiment: growth of human tumour cells (NCI), 48 h

Consider `O=C1C2=C(CCCCC2)C2CCCCC12O` (stereo not given), for which the TGI in the test on SW-620 colon, with SK-MEL-2 melanoma, with SF-268 CNS, in the test with EKVX NSCLC, with RPMI-8226 leukemia and in the test on NCI-H226 lung was > 100 µM throughout. Also, the TGI in the test with M14 melanoma, with SR leukemia and with NCI-H522 lung was > 100 µM in each case.

For the compound `COc1c(-c2cccs2)oc2c(CC(=O)O)cccc2c1=O`, the TGI in the test on SK-MEL-2 melanoma was > 100 µM; in the test with EKVX NSCLC it was > 100 µM; with RPMI-8226 leukemia, 5.92 µM; in the test on M14 melanoma it was > 100 µM; with SR leukemia it was > 100 µM; in the test with NCI-H522 lung it was > 100 µM.

For the compound `COC12OC3CC4(C)C(=CC3OC(OC(C)C1O)C2O)CCC1C4CCC2(C)C(c3ccc(=O)oc3)CCC12O` (stereo not given), the TGI with SW-620 colon is 0.00731 µM; with SK-MEL-2 melanoma, 0.00448 µM; in the test on SF-268 CNS, 0.00157 µM; in the test with OVCAR-4 ovarian it was 0.00199 µM; in the test on EKVX NSCLC, < 0.001 µM; with RPMI-8226 leukemia it was 0.00409 µM. In addition, the TGI was 0.00676 µM in the test with NCI-H226 lung, 0.00497 µM in the test on M14 melanoma, 0.00291 µM in the test on SR leukemia and < 0.001 µM in the test with NCI-H522 lung.

Regarding `NC(=O)C[C@H](NC(=O)C1(NC(=O)[C@H](Cc2ccc(CP(=O)(O)O)cc2)NC(=O)C(=O)O)CCCCC1)C(=O)NCCCc1cccc2ccccc12`, the TGI with SW-620 colon, in the test with SK-MEL-2 melanoma, with SF-268 CNS, in the test on OVCAR-4 ovarian, with EKVX NSCLC and in the test with RPMI-8226 leukemia was > 10 µM throughout. Further, the TGI in the test on NCI-H226 lung is > 10 µM; in the test with M14 melanoma, > 10 µM; with SR leukemia, 7.86 µM; in the test with NCI-H522 lung it was > 10 µM.

In the case of `COc1ccc(CCNC(=O)CCCCCO)cc1OC`, the TGI with SW-620 colon, in the test with SK-MEL-2 melanoma, with SF-268 CNS, in the test on OVCAR-4 ovarian, with EKVX NSCLC and in the test with RPMI-8226 leukemia was > 100 µM throughout. The TGI with NCI-H226 lung, with M14 melanoma, with SR leukemia and in the test with NCI-H522 lung was > 100 µM each time.

`COc1cccc2c1-c1c(OC)cccc1SS2`: the TGI in the test with SW-620 colon worked out at 47.2 µM; with SK-MEL-2 melanoma it was 46.4 µM; with SF-268 CNS, 80 µM; with OVCAR-4 ovarian, 90.5 µM; in the test on EKVX NSCLC it was 31.4 µM; with RPMI-8226 leukemia, 59.2 µM. The TGI with NCI-H226 lung was 42.7 µM; with M14 melanoma, > 100 µM; in the test with SR leukemia it was 46.4 µM; in the test with NCI-H522 lung, 64.5 µM.

`COP(=O)(OC)c1ccc(NCc2cc(O)ccc2O)cc1`: the TGI in the test on SW-620 colon is > 100 µM; with SK-MEL-2 melanoma it was > 87.8 µM; in the test with SF-268 CNS it was 43.6 µM; in the test with OVCAR-4 ovarian it was > 59 µM; in the test with EKVX NSCLC, 56.4 µM; in the test on RPMI-8226 leukemia, 62.4 µM. The TGI with NCI-H226 lung was > 77.9 µM; in the test with M14 melanoma it was > 61.1 µM; in the test with SR leukemia, > 83.4 µM; in the test with NCI-H522 lung, > 71.8 µM.

As for `O=C(O)CN(CC(=O)O)Cc1ccn(-c2cccc(-n3ccc(CN(CC(=O)O)CC(=O)O)n3)n2)n1`, the TGI in the test with SW-620 colon, in the test with SK-MEL-2 melanoma, in the test with SF-268 CNS, in the test with EKVX NSCLC, in the test with RPMI-8226 leukemia and in the test on NCI-H226 lung was > 100 µM each time. Moreover, the TGI with M14 melanoma, in the test on SR leukemia and with NCI-H522 lung was > 100 µM in each case.

`C[C@]12CC[C@H](O)CC1=CC[C@@H]1[C@@H]2CC[C@]2(C)c3nc(Cl)ccc3C[C@@H]12`: the TGI in the test on SW-620 colon is > 100 µM; with SK-MEL-2 melanoma, > 100 µM; in the test on SF-268 CNS, > 75.7 µM; with OVCAR-4 ovarian, > 100 µM; with EKVX NSCLC, > 71.6 µM; with RPMI-8226 leukemia, > 100 µM. For the same compound, the TGI in the test with NCI-H226 lung, in the test on M14 melanoma, with SR leukemia and with NCI-H522 lung was > 100 µM throughout.

Take `CN(C)CCCNc1cnc2cc3ccccc3cc2n1`: the TGI was > 100 µM with SW-620 colon; 44.8 µM in the test on SK-MEL-2 melanoma; 77.1 µM in the test on SF-268 CNS; 91.4 µM in the test on OVCAR-4 ovarian; > 100 µM with EKVX NSCLC; 82.2 µM in the test on RPMI-8226 leukemia. The TGI in the test with NCI-H226 lung was 40.6 µM; in the test with M14 melanoma, 50.5 µM; in the test with SR leukemia it was > 100 µM; with NCI-H522 lung it was 55.5 µM.

As to `CC(=O)Nc1ccc(-c2nnc(SCC(=O)Nc3cccc([N+](=O)[O-])c3)o2)cc1`, the TGI with SW-620 colon came out at 44 µM; in the test on SK-MEL-2 melanoma, 37.2 µM; with SF-268 CNS it was 31.7 µM; in the test on OVCAR-4 ovarian, 25.3 µM; in the test with RPMI-8226 leukemia, 75.8 µM; with NCI-H226 lung, 23.6 µM. Also, the results for the TGI in the test on M14 melanoma, with SR leukemia and in the test on NCI-H522 lung were 29.7 µM, 89.2 µM and 22.4 µM, respectively.

As to `C/C(=N\NC(=O)c1cccnc1)c1cccc(/C(C)=N/NC(=O)c2cccnc2)n1.CC(=O)[O-].CC(=O)[O-].[Zn+2]`, the TGI is > 100 µM with SW-620 colon; > 54.9 µM with SK-MEL-2 melanoma; 84.4 µM in the test with SF-268 CNS; > 100 µM in the test on OVCAR-4 ovarian; > 100 µM in the test on EKVX NSCLC; > 100 µM in the test with RPMI-8226 leukemia. Besides, the TGI in the test with NCI-H226 lung was 27.2 µM; in the test on M14 melanoma, > 47.2 µM; in the test on SR leukemia, 10.8 µM; in the test on NCI-H522 lung, > 21.7 µM. The results for the GI50 in the test with SR leukemia and in the test on NCI-H522 lung were 0.793 µM and 0.134 µM, respectively.

For the compound `N#Cc1ccc(Nc2cnc3ccc(N)cc3n2)cc1`, the TGI in the test on SW-620 colon, with SK-MEL-2 melanoma, in the test on SF-268 CNS, with OVCAR-4 ovarian, with EKVX NSCLC and in the test with RPMI-8226 leukemia was > 100 µM in each case. Moreover, the TGI with NCI-H226 lung, with M14 melanoma, with SR leukemia and in the test on NCI-H522 lung was > 100 µM each time.
